Entries after “also recorded” stand apart in the source; their conditions may differ.
Assays:
[1] = system: isolated mitochondria (U-937 cells); assay: In vitro cytochrome c release from isolated mitochondria; assay type: biochemical, Human; details: respiring and non-respiring conditions, 30 min, Western blot
Experimental: In Vitro Cytochrome c Release from Isolated Mitochondria.
U-937 cells (120×10^6) were washed twice in PBS and resuspended in 800 μL ice-cold lysis buffer (50 mM HEPES, 5 mM DTT, 5 mM PMSF, 25 mM MgCl2, protease cocktail inhibitor, pH 7.5) and the cells were passed through a 26 gauge needle 26 times using a 1 mL syringe until >95% cells were lysed as determined by trypan blue. Isolation buffer (0.25 M sucrose in lysis buffer pH 7.5) was added to the lysed cells (2.4 mL) and mixed by inversion. Debris was removed by centrifugation (500×g. 10 min at 4° C.) and the mitochondria in the supernatant were pelleted by centrifugation (10000×g, 5 min at 4° C.). The mitochondrial pellet was resuspended in washing buffer (2 mL of 50 mM HEPES, 250 mM KCl, 25 mM EDTA, pH 7.5) and incubated on ice for 2 min and centrifuged (12500×g, 5 min). The mitochondrial pellet was resuspended in either non-respiration (300 μL of 50 mM HEPES, 5 mM DTT, 5 mM PMSF, 25 mM MgCl2, protease inhibitor, 250 mM KCl, 25 mM EDTA, pH 7.5) or respiration buffer (300 μL of 50 mM HEPES, […], 5 mM ATP, 0.4 mM ADP, 25 mM sodium succinate, 10 mM potassium phosphate dibasic, pH 7.5). […]

[2] = system: adherent cell lines (HOS, H1993, SK-MEL-5, MIA PaCa-2); assay: Adherent cell lines: cell death by AV/PI staining and immunoblots; assay type: cell-based, Human; details: HOS, H1993, SK-MEL-5, MIA PaCa-2, 10 μM
[3] = system: U-937 cells; assay: Mitochondrial permeability transition pore (MPTP) calcein-cobalt assay; assay type: cell-based, Human; details: calcein-cobalt quenching
Experimental: Mitochondrial Permeability Transition Pore (MPTP) Calcein-Cobalt Assay.
U-937 cells (1×10^6 cells/mL in HBSS) were loaded with calcein-AM (20 nM final concentration) for 45 minutes at 37° C. The cells were washed with HBSS and resuspended in RPMI and plated into a 24-well plate (1×10^6 cells in 1 mL). The cells were treated with Raptinal (10 μM) for 15, 30, 45, 60 and 90 minutes. Cobalt(II) chloride was added (10 μL of 80 mM stock in HBSS) to the cells 10 minutes prior to the end of the time points. The cells were pelleted and resuspended in HBSS (0.5 mL) and calcein fluorescence was measured by flow cytometry. As a positive control for MPTP, ionomycin and calcium were added to calcein-labeled cells in HBSS 10 minutes prior to analysis by flow cytometry.

[4] = system: U-937 cells; assay: Cytochrome c release by immunoblot and flow cytometry; assay type: cell-based, Human; details: 10 μM
Experimental: (§1) Cytochrome c Release by Immunoblot.
(§2) U-937 cells (3×10^6 cells in 2 mL RPMI) or SKW 6.4 cells (5×10^6 cells in 2 mL RPMI) were treated with 10 μM Raptinal for 10, 20, 30, 45 or 60 minutes in a 12-well plate. Cells were centrifuged (1000×g. 2 min), washed with ice-cold PBS and resuspended in cold 200 μL digitonin permeabilization buffer (75 mM NaCl, 1 mM Sodium phosphate monobasic, 8 mM sodium phosphate dibasic, 250 mM sucrose, 190 μg/mL digitonin, protease cocktail inhibitor, pH 7.5) and placed on ice for 5 min. Cell permeability (>95%) was confirmed by trypan blue. The permeabilized cells were centrifuged (14000×g, 5 min) and 150 μL of supernatant (cytosolic fraction) was saved. The pellet (mitochondrial fraction) was washed in 200 μL digitonin permeabilization buffer and lysed in 25 μL RIPA lysis buffer. […]
(§3) Suspension cells (2.5×10^6 SKW 6.4 cells or 1.5×10^6 U-937 cells in 1 mL RPMI) were treated with 10 μM Raptinal in a 24 well plate for 10, 20, 30, 45 and 60 min. The cells were centrifuged (1000×g, 2 min), washed with cold PBS and resuspended in cold permeabilization buffer (PBS containing 50 μg/mL digitonin and 100 mM KCl) and placed on ice for 5 min after which >95% of cells were permeabilized as determined by trypan blue. […] The cells were pelleted and washed with PBS (3 mL) and resuspended in PBS (1 mL) and analyzed by flow cytometry. […]

[5] = system: SKW 6.4 cells; assay: as above; assay type: cell-based, Human; details: 10 μM
Experimental: as §1, §2, §3

[6] = system: U-937 cells; assay type: cell-based, Human; details: 20 minute treatment, dihydroethidium, flow cytometry
Experimental: Measurement of Cellular ROS Production.
U-937 cells (1 mL of 5×10^5 cells/mL) in Hank's buffered salt solution (HBSS) containing 5 mM glucose were treated with DMSO, 2 or 10 μM Raptinal, 10 μM thapsigargin, 100 μM etoposide (1% DMSO final) and incubated in the presence of 5 μM dihydroethidium a 37° C., 5% CO2 incubator for 20 minutes. […]. The levels of ethidium were assessed by flow cytometry. Live cells were analyzed based on gating on the forward and side scatter properties and the geometric mean of ethidium staining was determined using the software FCS Express.

SMILES: O=CC1(C2(C=O)c3ccccc3-c3ccccc32)c2ccccc2-c2ccccc21 [Raptinal, [9,9′]bifluorenyl-9,9′-dicarbaldehyde]
- cytochrome c release from isolated mitochondria [1]: does not induce cytochrome c release; also recorded: did not directly induce cytochrome c release
- speed of cell death induction versus 1541B and staurosporine ([2]; AV/PI): substantially faster than the other agents
- procaspase-3 activation and PARP-1 cleavage within 2 hours ([2]; immunoblots): the only agent capable of activating procaspase-3 and inducing subsequent PARP-1 cleavage within 2 hours
- mitochondrial permeability transition pore (MPTP) formation [3]: does not induce; also recorded: did not undergo mitochondrial-permeability-transition-pore (MPTP) formation
- time of earliest / partial cytochrome c release [4]: 10 min
- time of earliest / partial cytochrome c release [5]: 10 min
- production of reactive oxygen species (superoxide anion radicals) [6]: rapid accumulation of superoxide anion radicals; also recorded: observed
